Experiments:
Format in all cases: in vivo
[1] = test system: ABUTH, Velvetleaf, Abutilon theophrasti, Medic.; test: Postemergence herbicidal evaluation (Example 147); conditions: rating scale 0-9, two to three weeks after treatment
In short: (§1)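 Compound is applied postemergence at approximately 0.016–0.032 kg/ha through a nozzle at 40 psi, using 80/20 acetone/water with 1.0% SUN-IT II. Treated seedlings, grown about two weeks beforehand, stay in the greenhouse for two to three weeks before visual 0-9 scoring.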

[2] = test system: ALOMY, Blackgrass, Alopecurus myosuroides; test: Postemergence herbicidal evaluation (Example 147); conditions: rating scale 0-9, two to three weeks after treatment
In short: as §1

[3] = test system: AMBEL, Ragweed, Common, Ambrosia artemiisifolia, L.; test: Postemergence herbicidal evaluation (Example 147); conditions: rating scale 0-9, two to three weeks after treatment
In short: as §1

[4] = test system: CHEAL, Lambsquarters, Chenopodium album, L. Common; test: Postemergence herbicidal evaluation (Example 147); conditions: rating scale 0-9, two to three weeks after treatment
In short: as §1

[5] = test system: DIGSA, Crabgrass, (Hairy) L, Digitaria sanguinalis, (L)Scop; test: Postemergence herbicidal evaluation (Example 147); conditions: rating scale 0-9, two to three weeks after treatment
In short: as §1

[6] = test system: ECHCG, Barnyardgrass, Echinochloa crusgalli, (L.)Beau; test: Postemergence herbicidal evaluation (Example 147); conditions: rating scale 0-9, two to three weeks after treatment
In short: as §1

[7] = test system: GLXMA, Soybean, Glycine max, (L.) Merr.; test: Postemergence herbicidal evaluation (Example 147); conditions: rating scale 0-9, two to three weeks after treatment
In short: as §1

[8] = test system: IPOHE, Morningglory, Ivyleaf, Ipomoea hederacea, (L)Jacq.; test: Postemergence herbicidal evaluation (Example 147); conditions: rating scale 0-9, two to three weeks after treatment
In short: as §1

[9] = test system: SETVI, Green foxtail, Setaria viridis, (L.)Beau; test: Postemergence herbicidal evaluation (Example 147); conditions: rating scale 0-9, two to three weeks after treatment
In short: as §1

[10] = test system: TRZAW, Winter wheat, Tritium Aestivum, L. (Winter); test: Postemergence herbicidal evaluation (Example 147); conditions: rating scale 0-9, two to three weeks after treatment
In short: as §1

[11] = test system: XANST, Cocklebur, Xanthium strumariam; test: Postemergence herbicidal evaluation (Example 147); conditions: rating scale 0-9, two to three weeks after treatment
In short: as §1

[12] = test system: ZEAMX, Field corn, Zea mays L.; test: Postemergence herbicidal evaluation (Example 147); conditions: rating scale 0-9, two to three weeks after treatment
In short: as §1

[13] = test system: ABUTH, Velvetleaf, Abutilon theophrasti, Medic.; test: Preemergence herbicidal evaluation (Example 148); conditions: rating scale 0-9, two to four weeks after treatment
In short: (§2)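 Sow seed–soil mix onto ~1 in soil; spray aqueous acetone compound solution (~0.125–0.250 kg/ha equivalent); keep on greenhouse benches under standard watering; score injury visually after 2–4 weeks.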

[14] = test system: ALOMY, Blackgrass, Alopecurus myosuroides; test: Preemergence herbicidal evaluation (Example 148); conditions: rating scale 0-9, two to four weeks after treatment
In short: as §2

[15] = test system: AMBEL, Ragweed, Common, Ambrosia artemiisifolia, L.; test: Preemergence herbicidal evaluation (Example 148); conditions: rating scale 0-9, two to four weeks after treatment
In short: as §2

[16] = test system: CHEAL, Lambsquarters, Chenopodium album, L. Common; test: Preemergence herbicidal evaluation (Example 148); conditions: rating scale 0-9, two to four weeks after treatment
In short: as §2

[17] = test system: DIGSA, Crabgrass, (Hairy) L, Digitaria sanguinalis, (L)Scop; test: Preemergence herbicidal evaluation (Example 148); conditions: rating scale 0-9, two to four weeks after treatment
In short: as §2

[18] = test system: ECHCG, Barnyardgrass, Echinochloa crusgalli, (L.)Beau; test: Preemergence herbicidal evaluation (Example 148); conditions: rating scale 0-9, two to four weeks after treatment
In short: as §2

[19] = test system: GLXMA, Soybean, Glycine max, (L.) Merr.; test: Preemergence herbicidal evaluation (Example 148); conditions: rating scale 0-9, two to four weeks after treatment
In short: as §2

[20] = test system: IPOHE, Morningglory, Ivyleaf, Ipomoea hederacea, (L)Jacq.; test: Preemergence herbicidal evaluation (Example 148); conditions: rating scale 0-9, two to four weeks after treatment
In short: as §2

[21] = test system: SETVI, Green foxtail, Setaria viridis, (L.)Beau; test: Preemergence herbicidal evaluation (Example 148); conditions: rating scale 0-9, two to four weeks after treatment
In short: as §2

[22] = test system: TRZAW, Winter wheat, Tritium Aestivum, L. (Winter); test: Preemergence herbicidal evaluation (Example 148); conditions: rating scale 0-9, two to four weeks after treatment
In short: as §2

[23] = test system: XANST, Cocklebur, Xanthium strumariam; test: Preemergence herbicidal evaluation (Example 148); conditions: rating scale 0-9, two to four weeks after treatment
In short: as §2

[24] = test system: ZEAMX, Field corn, Zea mays L.; test: Preemergence herbicidal evaluation (Example 148); conditions: rating scale 0-9, two to four weeks after treatment
In short: as §2

CN(CCC#N)S(=O)(=O)NC(=O)c1cc(-n2c(=O)cc(C(F)(F)F)n(C)c2=O)c(F)cc1Cl [Example 84]
Postemergence herbicidal rating ABUTH ([1]; rate 0.016 kg/ha): 9.0 | Postemergence herbicidal rating ABUTH ([1]; rate 0.032 kg/ha): 9.0 | Postemergence herbicidal rating ALMOY ([2]; rate 0.016 kg/ha): 1.0 | Postemergence herbicidal rating ALMOY ([2]; rate 0.032 kg/ha): 2.0 | Postemergence herbicidal rating AMBEL ([3]; rate 0.016 kg/ha): 8.0 | Postemergence herbicidal rating AMBEL ([3]; rate 0.032 kg/ha): 9.0 | Postemergence herbicidal rating CHEAL ([4]; rate 0.016 kg/ha): 7.0 | Postemergence herbicidal rating CHEAL ([4]; rate 0.032 kg/ha): 9.0 | Postemergence herbicidal rating DIGSA ([5]; rate 0.016 kg/ha): 5.0 | Postemergence herbicidal rating DIGSA ([5]; rate 0.032 kg/ha): 6.0 | Postemergence herbicidal rating ECHCG ([6]; rate 0.016 kg/ha): 8.0 | Postemergence herbicidal rating ECHCG ([6]; rate 0.032 kg/ha): 9.0 | Postemergence herbicidal rating GLXMA ([7]; rate 0.016 kg/ha): 7.0 | Postemergence herbicidal rating GLXMA ([7]; rate 0.032 kg/ha): 8.5 | Postemergence herbicidal rating IPOHE ([8]; rate 0.016 kg/ha): 9.0 | Postemergence herbicidal rating IPOHE ([8]; rate 0.032 kg/ha): 9.0 | Postemergence herbicidal rating SETVI ([9]; rate 0.016 kg/ha): 7.0 | Postemergence herbicidal rating SETVI ([9]; rate 0.032 kg/ha): 8.0 | Postemergence herbicidal rating TRZAW ([10]; rate 0.016 kg/ha): 5.0 | Postemergence herbicidal rating TRZAW ([10]; rate 0.032 kg/ha): 5.5 | Postemergence herbicidal rating XANST ([11]; rate 0.016 kg/ha): 9.0 | Postemergence herbicidal rating XANST ([11]; rate 0.032 kg/ha): 9.0 | Postemergence herbicidal rating ZEAMX ([12]; rate 0.016 kg/ha): 7.0 | Postemergence herbicidal rating ZEAMX ([12]; rate 0.032 kg/ha): 8.0 | Preemergence herbicidal rating ABUTH ([13]; rate 0.125 kg/ha): 9.0 | Preemergence herbicidal rating ABUTH ([13]; rate 0.25 kg/ha): 9.0 | Preemergence herbicidal rating ALMOY ([14]; rate 0.125 kg/ha): 0.0 | Preemergence herbicidal rating ALMOY ([14]; rate 0.25 kg/ha): 1.0 | Preemergence herbicidal rating AMBEL ([15]; rate 0.125 kg/ha): 9.0 | Preemergence herbicidal rating AMBEL ([15]; rate 0.25 kg/ha): 9.0 | Preemergence herbicidal rating CHEAL ([16]; rate 0.125 kg/ha): 9.0 | Preemergence herbicidal rating CHEAL ([16]; rate 0.25 kg/ha): 9.0 | Preemergence herbicidal rating DIGSA ([17]; rate 0.125 kg/ha): 7.0 | Preemergence herbicidal rating DIGSA ([17]; rate 0.25 kg/ha): 8.0 | Preemergence herbicidal rating ECHCG ([18]; rate 0.125 kg/ha): 5.0 | Preemergence herbicidal rating ECHCG ([18]; rate 0.25 kg/ha): 6.0 | Preemergence herbicidal rating GLXMA ([19]; rate 0.125 kg/ha): 2.0 | Preemergence herbicidal rating GLXMA ([19]; rate 0.25 kg/ha): 7.0 | Preemergence herbicidal rating IPOHE ([20]; rate 0.125 kg/ha): 9.0 | Preemergence herbicidal rating IPOHE ([20]; rate 0.25 kg/ha): 9.0 | Preemergence herbicidal rating SETVI ([21]; rate 0.125 kg/ha): 7.0 | Preemergence herbicidal rating SETVI ([21]; rate 0.25 kg/ha): 7.0 | Preemergence herbicidal rating TRZAW ([22]; rate 0.125 kg/ha): 0.0 | Preemergence herbicidal rating TRZAW ([22]; rate 0.25 kg/ha): 2.0 | Preemergence herbicidal rating XANST ([23]; rate 0.125 kg/ha): 9.0 | Preemergence herbicidal rating XANST ([23]; rate 0.25 kg/ha): 9.0 | Preemergence herbicidal rating ZEAMX ([24]; rate 0.125 kg/ha): 0.0 | Preemergence herbicidal rating ZEAMX ([24]; rate 0.25 kg/ha): 1.0

3-(5-(N,N-Dimethyl)sulfamoylcarboxamido-4-chloro-2-fluorophenyl)-1,2,3,4-dihydro-6-trifluoromethylpyrimidin-2,4-dione [Example 54]
Postemergence herbicidal rating ABUTH ([1]; rate 0.016 kg/ha): 9.0 | Postemergence herbicidal rating ABUTH ([1]; rate 0.032 kg/ha): 9.0 | Postemergence herbicidal rating ALMOY ([2]; rate 0.016 kg/ha): 2.0 | Postemergence herbicidal rating ALMOY ([2]; rate 0.032 kg/ha): 2.0 | Postemergence herbicidal rating AMBEL ([3]; rate 0.016 kg/ha): 9.0 | Postemergence herbicidal rating AMBEL ([3]; rate 0.032 kg/ha): 9.0 | Postemergence herbicidal rating CHEAL ([4]; rate 0.016 kg/ha): 9.0 | Postemergence herbicidal rating CHEAL ([4]; rate 0.032 kg/ha): 9.0 | Postemergence herbicidal rating DIGSA ([5]; rate 0.016 kg/ha): 5.0 | Postemergence herbicidal rating DIGSA ([5]; rate 0.032 kg/ha): 6.0 | Postemergence herbicidal rating ECHCG ([6]; rate 0.016 kg/ha): 6.0 | Postemergence herbicidal rating ECHCG ([6]; rate 0.032 kg/ha): 8.0 | Postemergence herbicidal rating GLXMA ([7]; rate 0.016 kg/ha): 8.0 | Postemergence herbicidal rating GLXMA ([7]; rate 0.032 kg/ha): 8.5 | Postemergence herbicidal rating IPOHE ([8]; rate 0.016 kg/ha): 9.0 | Postemergence herbicidal rating IPOHE ([8]; rate 0.032 kg/ha): 9.0 | Postemergence herbicidal rating SETVI ([9]; rate 0.016 kg/ha): 7.0 | Postemergence herbicidal rating SETVI ([9]; rate 0.032 kg/ha): 7.0 | Postemergence herbicidal rating TRZAW ([10]; rate 0.016 kg/ha): 5.5 | Postemergence herbicidal rating TRZAW ([10]; rate 0.032 kg/ha): 6.0 | Postemergence herbicidal rating XANST ([11]; rate 0.016 kg/ha): 9.0 | Postemergence herbicidal rating XANST ([11]; rate 0.032 kg/ha): 9.0 | Postemergence herbicidal rating ZEAMX ([12]; rate 0.016 kg/ha): 6.5 | Postemergence herbicidal rating ZEAMX ([12]; rate 0.032 kg/ha): 7.5 | Preemergence herbicidal rating ABUTH ([13]; rate 0.125 kg/ha): 9.0 | Preemergence herbicidal rating ABUTH ([13]; rate 0.25 kg/ha): 9.0 | Preemergence herbicidal rating ALMOY ([14]; rate 0.125 kg/ha): 0.0 | Preemergence herbicidal rating ALMOY ([14]; rate 0.25 kg/ha): 0.0 | Preemergence herbicidal rating AMBEL ([15]; rate 0.125 kg/ha): 7.0 | Preemergence herbicidal rating AMBEL ([15]; rate 0.25 kg/ha): 8.0 | Preemergence herbicidal rating CHEAL ([16]; rate 0.125 kg/ha): 9.0 | Preemergence herbicidal rating CHEAL ([16]; rate 0.25 kg/ha): 9.0 | Preemergence herbicidal rating DIGSA ([17]; rate 0.125 kg/ha): 4.0 | Preemergence herbicidal rating DIGSA ([17]; rate 0.25 kg/ha): 6.0 | Preemergence herbicidal rating ECHCG ([18]; rate 0.125 kg/ha): 3.0 | Preemergence herbicidal rating ECHCG ([18]; rate 0.25 kg/ha): 3.0 | Preemergence herbicidal rating GLXMA ([19]; rate 0.125 kg/ha): 0.0 | Preemergence herbicidal rating GLXMA ([19]; rate 0.25 kg/ha): 0.0 | Preemergence herbicidal rating IPOHE ([20]; rate 0.125 kg/ha): 0.0 | Preemergence herbicidal rating IPOHE ([20]; rate 0.25 kg/ha): 1.0 | Preemergence herbicidal rating SETVI ([21]; rate 0.125 kg/ha): 2.0 | Preemergence herbicidal rating SETVI ([21]; rate 0.25 kg/ha): 3.0 | Preemergence herbicidal rating TRZAW ([22]; rate 0.125 kg/ha): 0.0 | Preemergence herbicidal rating TRZAW ([22]; rate 0.25 kg/ha): 0.0 | Preemergence herbicidal rating XANST ([23]; rate 0.125 kg/ha): 1.0 | Preemergence herbicidal rating XANST ([23]; rate 0.25 kg/ha): 3.0 | Preemergence herbicidal rating ZEAMX ([24]; rate 0.125 kg/ha): 0.0 | Preemergence herbicidal rating ZEAMX ([24]; rate 0.25 kg/ha): 0.0
